In general, IC50 refers to the midpoint of a concentration-inhibition curve.

The target in this assay is T1, Human CARM1 (PRMT4) (Homo sapiens, UniProt Q86X55).
T1 construct: Flag-CARM1-His was eluted with 200 ug/ml FLAG peptide in buffer A; made in house; host or cells: HEK 293F cells infected with recombinant baculovirus (pFastBacMam)
T1 sequence (Q86X55 1-585 isoform Q86X55-1): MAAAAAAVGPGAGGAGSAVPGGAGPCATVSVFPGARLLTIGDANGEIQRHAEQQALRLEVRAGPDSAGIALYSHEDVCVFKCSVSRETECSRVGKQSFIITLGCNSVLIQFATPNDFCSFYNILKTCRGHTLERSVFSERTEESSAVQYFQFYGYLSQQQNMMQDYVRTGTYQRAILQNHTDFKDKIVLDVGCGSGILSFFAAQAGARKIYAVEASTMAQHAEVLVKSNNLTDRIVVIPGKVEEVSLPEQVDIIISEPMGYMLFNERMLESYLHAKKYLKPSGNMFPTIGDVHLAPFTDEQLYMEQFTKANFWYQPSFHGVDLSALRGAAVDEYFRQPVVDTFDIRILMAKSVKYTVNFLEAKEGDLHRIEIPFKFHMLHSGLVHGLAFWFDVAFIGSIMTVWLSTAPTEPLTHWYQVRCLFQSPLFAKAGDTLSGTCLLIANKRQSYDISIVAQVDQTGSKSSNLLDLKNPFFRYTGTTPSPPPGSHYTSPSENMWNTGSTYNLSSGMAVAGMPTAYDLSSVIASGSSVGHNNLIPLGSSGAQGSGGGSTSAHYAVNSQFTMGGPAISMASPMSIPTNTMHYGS
Kind of assay: CARM1 enzyme assay on peptide substrate (3H-SAM Flashplate). The following applies: CARM1 0.25 nM, 3H-SAM 30 nM, peptide 250 nM, 30 min preincubation; read-out: Biochem IC50. It counts as biochemical. From the text: Peptide representative of human histone H3 residues 16-30 was synthesized with an N-terminal linker-affinity tag motif and a C-terminal amide cap by 21st Century Biochemicals. The peptide was purified by high-performance liquid chromatography (HPLC) to greater than 95% purity and confirmed by liquid chromatography mass spectrometry (LC-MS). The sequence was Biot-Ahx-[…]-amide and contained a monomethylated arginine at position 26 (SEQ ID NO.:1).
Human CARM1 (PRMT4) (NM_199141.1) transcript clone was amplified from an HEK 293 cDNA library, incorporating a flanking 5′ sequence encoding a FLAG tag ([…]) (SEQ ID NO.:2) fused directly to Ala 2 of CARM1 and 3′ sequence encoding a hexa His sequence ([…]) (SEQ ID NO.:3) fused directly to Ser 608. The gene sequence encoding isoform1 containing a deletion of amino acids 539-561 was amplified subsequently and subcloned into pFastBacMam (Viva Biotech).
Recombinant baculovirus were generated according to Bac-to-Bac kit instructions (Life Technologies). Protein over-expression was accomplished by infecting exponentially growing HEK 293F cell culture at 1.3×10^6 cell/ml with virus (MOI=10) in the presence of 8 mM sodium butyrate. Infections were carried out at 37° C. for 48 hours, harvested by centrifugation, and stored at −80° C. for purification.
Expressed full-length human Flag- and His-tagged CARM1 protein was purified from cell paste by anti-flag M2 affinity chromatography with resin equilibrated with buffer containing 20 mM Tris, 150 mM NaCl, 5% glycerol, pH 7.8. Column was washed with 500 mM NaCl in buffer A and Flag-CARM1-His was eluted with 200 ug/ml FLAG peptide in buffer A. Pooled fractions were dialyzed in 20 mM Tris, 150 mM NaCl, 5% glycerol and 1 mM DTT, pH 7.8. The purity of recovered protein was 94.
The assays were all performed in a buffer consisting of 20 mM Bicine (pH=7.6), 1 mM TCEP, 0.005% BSG, and 0.002% Tween 20, prepared on the day of use. Compounds in 100% DMSO (1 ul) were spotted into a polypropylene 384-well V-bottom plates (Greiner) using a Platemate Plus outfitted with a 384-channel head (Thermo Scientific). DMSO (1 ul) was added to Columns 11, 12, 23, 24, rows A-H for the maximum signal control and 1 ul of SAH, a known product and inhibitor of CARM1, was added to columns 11, 12, 23, 24, rows I-P for the minimum signal control. A cocktail (40 ul) containing the CARM1 enzyme was added by Multidrop Combi (Thermo-Fisher). The compounds were allowed to incubate with CARM1 for 30 min at room temperature, then a cocktail (10 ul) containing ^3H-SAM and peptide was added to initiate the reaction (final volume=51 ul). The final concentrations of the components were as follows: CARM1 was 0.25 nM, ^3H-SAM was 30 nM, peptide was 250 nM, SAH in the minimum signal control wells was 1 mM, and the DMSO concentration was 2%. The assays were stopped by the addition of non-radiolabeled SAM (10 ul) to a final concentration of 300 uM, which dilutes the ^3H-SAM to a level where its incorporation into the peptide substrate is no longer detectable. 50 ul of the reaction in the 384-well polypropylene plate was then transferred to a 384-well Flashplate and the biotinylated peptides were allowed to bind to the streptavidin surface for at least 1 hour before being washed once with 0.1% Tween20 in a Biotek ELx405 plate washer. The plates were then read in a PerkinElmer TopCount plate reader to measure the quantity of ^3H-labeled peptide bound to the Flashplate surface, measured as disintegrations per minute (dpm) or alternatively, referred to as counts per minute (cpm).
[formula] where dpm=disintegrations per minute, cmpd=signal in assay well, and min and max are the respective minimum and maximum signal controls.
[formula] where top and bottom are the normally allowed to float, but may be fixed at 100 or 0 respectively in a 3-parameter fit. The Hill Coefficient normally allowed to float but may also be fixed at 1 in a 3-parameter fit. […]
With `CNCC(O)COc1cccc(-c2nc(-c3cncnc3)cc(N(CCOC)CCOC)n2)c1` (centres unmarked) [Compound 43-1], the half-maximal inhibitory concentration (IC50) was 100 to 1000 nM.

As for `CNCC(O)COc1cccc(-c2cc(N[C@H]3CCOC3)nc(C3CCOCC3)n2)c1` (some centres unmarked) [Compound 10-2], the IC50 is 100 to 1000 nM.

As to `CNCC(O)COc1cc(Cl)cc(-c2nc(-c3ccc(OC)c(OC)c3)cc(N(CCOC)CCOC)n2)c1` (centres unmarked) [Compound 75-1], the concentration for half-maximal inhibition (IC50) was in the range of 100 to 1000 nM.

For `CNCC(O)COc1cccc(-c2cc(N(C)C3CCOCC3)nc(C)n2)c1` (centres unmarked) [Compound 1-2], the IC50 fell in the range of 100 to 1000 nM.

Regarding `CNCC(O)COc1cccc(-c2nc(NC(C)C)cc(NC3CCOCC3)n2)c1` (centres unmarked) [Compound 16-1], the IC50 is 100 to 1000 nM.

As to `CNCC(O)COc1cc(Cl)cc(-c2nc(-c3cn4ccccc4n3)c(C)c(N(C)C3CCOCC3)n2)c1` (centres unmarked) [Compound 69-1], the IC50 is 100 to 1000 nM.

Take `C=C(Cl)c1cc(NC2CCOCC2)nc(-c2cccc(OCC(O)CNC)c2)n1` (centres unmarked) [Compound 17-1]: the IC50 lay within 1000 to 3000 nM.

On to `CNCC(O)COc1cccc(-c2nc(-c3ccnc(OC)c3)cc(N(C)CCC#N)n2)c1` (centres unmarked) [Compound 30-1], for which the IC50 fell in the range of 100 to 1000 nM.

Regarding `CNCC(O)COc1cccc(-c2nc(C(C)C)c(C)c(N(C)C3CCOCC3)n2)c1` (centres unmarked) [Compound 21-1], the IC50 was in the range of 100 to 1000 nM.

Regarding `CNCC(O)COc1cc(Cl)cc(-c2nc(-c3ccnc(OC)c3)cc(N(CCOC)CCOC)n2)c1` (centres unmarked) [Compound 65-1], the IC50 lay within 100 to 1000 nM.

`CNCC(O)COc1cc(Cl)cc(-c2nc(-c3ccncc3)c(C)c(N(C)C3CCOCC3)n2)c1` (centres unmarked) [Compound 58-1]: the IC50 lay in the range of 100 to 1000 nM.

On to `CNCC(O)COc1cccc(-c2nc(NCCOC)cc(-c3cccc4ncccc34)n2)c1` (centres unmarked) [Compound 39-1], for which the IC50 is 100 to 1000 nM.

In the case of `CNCC(O)COc1cccc(-c2nc(-c3ccc(C(F)(F)F)nc3)cc(N(C)CCC#N)n2)c1` (centres unmarked) [Compound 54-1], the IC50 lay in the range of 100 to 1000 nM.

For `CNCC(O)COc1cccc(-c2nc(NC3CCOCC3)cc(NC3CC3)n2)c1` (centres unmarked) [Compound 12-1], the IC50 is 100 to 1000 nM.

With `CNCC(O)COc1cccc(-c2nc(-c3ccc(OC)c(OC)c3)cc(N(C)C3CCOCC3)n2)c1` (centres unmarked) [Compound 61-1], the IC50 lay in the range of 1000 to 3000 nM.

In the case of `CNCC(O)COc1cc(Cl)cc(-c2nc(C(C)C)cc(N(C)C3CCOCC3)n2)c1` (centres unmarked) [Compound 31-1], the IC50 was 100 to 1000 nM.

Take `CNCC(O)COc1cc(Cl)cc(-c2nc(-c3ccc4c(c3)OCCO4)cc(N(CCOC)CCOC)n2)c1` (centres unmarked) [Compound 74-1]: the IC50 fell in the range of 100 to 1000 nM.

Regarding `CNCC(O)COc1cccc(-c2cc(NC3CCOCC3)nc(N3CCOCC3)n2)c1` (centres unmarked) [Compound 12-2], the IC50 is 100 to 1000 nM.

Turning to `CNCC(O)COc1cccc(-c2nc(-c3cccc4ncccc34)cc(N(C)CCC#N)n2)c1` (centres unmarked) [Compound 44-1], the IC50 fell in the range of 100 to 1000 nM.

Regarding `CNCC(O)COc1cccc(-c2nc(-c3ccnc(C)c3)cc(N(C)C3CCOCC3)n2)c1` (centres unmarked) [Compound 40-1], the IC50 lay in the range of 100 to 1000 nM.

As to `CNCC(O)COc1cccc(-c2nc(NCCCN3CCCC3=O)cc(-c3ccc(OC)c(OC)c3)n2)c1` (centres unmarked) [Compound 68-1], the IC50 fell in the range of 100 to 1000 nM.

With `CNCC(O)COc1cccc(-c2nc(N3CCOCC3)nc(N[C@H]3CCOC3)c2C)c1` (some centres unmarked) [Compound 13-2], the IC50 was in the range of 100 to 1000 nM.

Consider `CNCC(O)COc1cccc(-c2cc(NC3CCOCC3)nc(N(C)C)n2)c1` (centres unmarked) [Compound 3-2], for which the IC50 is 100 to 1000 nM.

Consider `CNCC(O)COc1cccc(-c2nc(NC3CCOCC3)cc(N3CCOCC3)n2)c1` (centres unmarked) [Compound 27-1], for which the IC50 lay in the range of 100 to 1000 nM.

Take `CNCC(O)COc1cccc(-c2nc(NCCOC)cc(-c3cccc(C#N)c3)n2)c1` (centres unmarked) [Compound 23-1]: the IC50 was in the range of 100 to 1000 nM.

In the case of `CNCC(O)COc1cccc(-c2nc(NC3CCOCC3)cc(-c3cccc(C#N)c3)n2)c1` (centres unmarked) [Compound 38-1], the IC50 was 100 to 1000 nM.

Consider `CNCC(O)COc1cccc(-c2nc(-c3ccc(S(C)(=O)=O)cc3)cc(N(CCOC)CCOC)n2)c1` (centres unmarked) [Compound 72-1], for which the IC50 is 100 to 1000 nM.

`C#Cc1cc(NC2CCOCC2)nc(-c2cccc(OCC(O)CNC)c2)n1` (centres unmarked) [Compound 5-1]: the IC50 is 3000 to 10000 nM.

Take `CNCC(O)COc1cccc(-c2nc(NCCCN3CCCC3=O)cc(-c3ccc(S(C)(=O)=O)cc3)n2)c1` (centres unmarked) [Compound 73-1]: the IC50 was 100 to 1000 nM.

Consider `CNCC(O)COc1cccc(-c2nc(NCCCN3CCCC3=O)cc(-c3ccc4c(c3)OCCO4)n2)c1` (centres unmarked) [Compound 66-1], for which the IC50 lay within 100 to 1000 nM.

On to `CNCC(O)COc1cccc(-c2cc(NC3CCOCC3)nc(NC(C)C)n2)c1` (centres unmarked) [Compound 9-2], for which the IC50 lay in the range of 100 to 1000 nM.

Turning to `CNCC(O)COc1cccc(-c2nc(-c3cc4ccccc4o3)cc(N(C)CCC#N)n2)c1` (centres unmarked) [Compound 35-1], the IC50 lay in the range of 100 to 1000 nM.

Take `CNCC(O)COc1cc(Cl)cc(-c2nc(N[C@@H]3CCOC3)c(C)c(C3=CCOCC3)n2)c1` (some centres unmarked) [Compound 47-1]: the IC50 is 100 to 1000 nM.

Consider `CNCC(O)COc1cccc(-c2nc(C)cc(N(C)C3CCOCC3)n2)c1` (centres unmarked) [Compound 6-1], for which the IC50 is 100 to 1000 nM.

Regarding `CNCC(O)COc1cccc(-c2nc(NC3CCOCC3)cc(-c3cnn(CC(C)C)c3)n2)c1` (centres unmarked) [Compound 51-1], the IC50 is 100 to 1000 nM.

For `CNCC(O)COc1cc(Cl)cc(-c2nc(C3CC3)cc(N(C)C3CCOCC3)n2)c1` (centres unmarked) [Compound 28-1], the IC50 was 100 to 1000 nM.

As for `CNCC(O)COc1cccc(-c2cc(NC3CCOCC3)nc(-c3ccncc3)n2)c1` (centres unmarked) [Compound 11-2], the IC50 was in the range of 100 to 1000 nM.

With `CNCC(O)COc1cccc(-c2nc(-c3ccc(C(F)(F)F)nc3)cc(N(CCOC)CCOC)n2)c1` (centres unmarked) [Compound 67-1], the IC50 lay within 100 to 1000 nM.

In the case of `CNCC(O)COc1cccc(-c2nc(-c3c(C)noc3C)cc(N(CCOC)CCOC)n2)c1` (centres unmarked) [Compound 52-1], the IC50 lay within 100 to 1000 nM.

For the compound `CNCC(O)COc1cc(Cl)cc(-c2nc(-c3cc(C)nc(C)c3)c(C)c(N(C)C3CCOCC3)n2)c1` (centres unmarked) [Compound 63-1], the IC50 lay within 100 to 1000 nM.

For `C#Cc1cc(N(C)C2CCOCC2)nc(-c2cccc(OCC(O)CNC)c2)n1` (centres unmarked) [Compound 7-1], the IC50 was in the range of 100 to 1000 nM.
